Measurements published in US8318769B2, “Substituted sulfonamide compounds” (Gruenethal GmbH, priority 2008, dated 2012).

Key:
[1] = molecular target: T1, human bradykinin 1 receptor (B1R) (Homo sapiens, UniProt P46663); assay: FLIPR Ca2+ assay, B1R antagonism, human; format: cell-based; details: 10 μM test substance, CHO K1 cells with human B1R gene (hB1R cells), Lys-Des-Arg9-bradykinin at EC80, % inhibition compared with the maximum achievable inhibition; for inhibition at 10 µM: read-out: B1R antagonism, human [10 μM] % inhibition
T1 construct: expressed in transfected cells
T1 sequence (P46663 1-353): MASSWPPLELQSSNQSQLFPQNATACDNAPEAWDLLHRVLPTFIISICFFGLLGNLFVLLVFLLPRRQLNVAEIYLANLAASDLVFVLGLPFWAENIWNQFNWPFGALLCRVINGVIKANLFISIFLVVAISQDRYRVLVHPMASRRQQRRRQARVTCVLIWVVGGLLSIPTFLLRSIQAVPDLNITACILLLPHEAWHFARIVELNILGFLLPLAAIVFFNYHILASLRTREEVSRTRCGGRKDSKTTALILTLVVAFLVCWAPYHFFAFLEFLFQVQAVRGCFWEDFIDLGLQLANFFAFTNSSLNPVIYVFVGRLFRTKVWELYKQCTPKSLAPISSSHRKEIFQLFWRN
Method: The agonistic or antagonistic action of substances can be quantified on the bradykinin 1 receptor (B1R) of the human and rat species with ectopically expressing cell lines (CHO K1 cells) and with the aid of a Ca^2+-sensitive dyestuff (Fluo-4) in a fluorescent imaging plate reader (FLIPR). The figure in % activation is based on the Ca^2+ signal after addition of Lys-Des-Arg^9-bradykinin (0.5 nM) or Des-Arg^9-bradykinin (100 nM). Antagonists lead to a suppression of the Ca^2+ inflow after addition of the agonist. % inhibition compared with the maximum achievable inhibition is stated.
The agonistic or antagonistic action of substances can be determined on the bradykinin 1 receptor (B1R) of the human and rat species with the following assay. In accordance with this assay, the Ca^2+ inflow through the channel is quantified with the aid of a Ca^2+-sensitive dyestuff (type Fluo-4, Molecular Probes Europe BV, Leiden, Holland) in a fluorescent imaging plate reader (FLIPR, Molecular Devices, Sunnyvale, USA).
Chinese hamster ovary cells (CHO K1 cells) transfected stably with the human B1R gene (hB1R cells) or the B1R gene of the rat (rB1R cells) are used. For functional studies, these cells are plated out on black 96-well plates with a clear base (BD Biosciences, Heidelberg, Germany or Greiner, Frickenhausen, Germany) in a density of 20,000-35,000 cells/well. The cells are left overnight at 37° C. and 5% CO2 in culture medium (hB1R cells: Nutrient Mixture Ham's F12, Gibco Invitrogen GmbH, Karlsruhe, Germany or DMEM, Sigma-Aldrich, Taufkirchen, Germany; rB1R cells: D-MEM/F12, Gibco Invitrogen GmbH, Karlsruhe, Germany) with 10 vol. % FBS (foetal bovine serum, Gibco Invitrogen GmbH, Karlsruhe, Germany or PAN Biotech GmbH, Aidenbach, Germany).
On the following day, the cells are loaded for 60 min at 37° C. with 2.13 μM Fluo-4 (Molecular Probes Europe BV, Leiden, Holland) in HBSS buffer (Hank's buffered saline solution, Gibco Invitrogen GmbH, Karlsruhe, Germany) with 2.5 mM probenecid (Sigma-Aldrich, Taufkirchen, Germany) and 10 mM HEPES (Sigma-Aldrich, Taufkirchen, Germany). The plates are then washed 2× with HBSS buffer, and HBSS buffer which additionally contains 0.1% BSA (bovine serum albumin; Sigma-Aldrich, Taufkirchen, Germany), 5.6 mM glucose and 0.05% gelatine (Merck KGaA, Darmstadt, Germany) is added. After a further incubation of 20 minutes at room temperature, the plates are inserted into the FLIPR for the Ca^2+ measurement.
Alternatively, the plates are washed with buffer A (15 mM HEPES, 80 mM NaCl, 5 mM KCl, 1.2 mM CaCl2, 0.7 mM MgSO4, 2 g/l glucose, 2.5 mM probenecid), buffer A is added and the plates are loaded with 2.5 μM Fluo-4 and 0.025% Pluronic F127 (Sigma-Aldrich, Taufkirchen, Germany). Thereafter, the cells are washed 2× with buffer A and incubated for 30 minutes with buffer A, which additionally contains 0.05% BSA and 0.05% gelatine, at room temperature and thereafter inserted into the FLIPR for the Ca^2+ measurement.
The Ca^2+-dependent fluorescence is measured here before and after addition of substances (λex=488 nm, λem=540 nm). Quantification is by measurement of the highest fluorescence intensity (FC, fluorescence counts) over time.
The FLIPR protocol consists of 2 additions of substance. Test substances (10 μM) are first pipetted on to the cells and the Ca^2+ inflow is compared with the control (hB1R: Lys-Des-Arg^9-bradykinin >=50 nM; rB1R: Des-Arg^9-bradykinin 10 μM). This gives the figure in % activation based on the Ca^2+ signal after addition of Lys-Des-Arg^9-bradykinin (>=50 nM) or Des-Arg^9-bradykinin (10 μM).
After incubation for 10-20 minutes, Lys-Des-Arg^9-bradykinin (hB1R) or Des-Arg^9-bradykinin (rB1R) in the concentration of the EC80 is applied and the inflow of Ca^2+ is likewise determined. Antagonists lead to a suppression of the Ca^2+ inflow. % inhibition compared with the maximum achievable inhibition is calculated. […]

[2] = molecular target: T2, bradykinin 1 receptor (B1R) of the rat (Rattus norvegicus, UniProt P97583); assay: FLIPR Ca2+ assay, B1R antagonism, rat; format: cell-based; details: CHO K1 cells with rat B1R gene (rB1R cells), Des-Arg9-bradykinin at EC80, % inhibition compared with the maximum achievable inhibition; for inhibition at 10 µM: CHO-K1, 10 μM test substance, read-out: B1R antagonism, rat [10 μM] % inhibition
T2 construct: expressed in transfected cells
T2 sequence (P97583 1-337): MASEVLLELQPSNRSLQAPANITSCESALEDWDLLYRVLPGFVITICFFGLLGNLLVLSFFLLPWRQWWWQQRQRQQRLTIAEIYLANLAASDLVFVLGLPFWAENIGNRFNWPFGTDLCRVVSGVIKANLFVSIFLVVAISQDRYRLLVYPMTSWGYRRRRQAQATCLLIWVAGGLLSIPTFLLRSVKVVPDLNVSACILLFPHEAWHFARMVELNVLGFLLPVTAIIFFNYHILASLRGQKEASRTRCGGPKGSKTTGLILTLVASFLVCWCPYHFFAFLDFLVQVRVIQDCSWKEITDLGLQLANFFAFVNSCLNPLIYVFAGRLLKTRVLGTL
Outline: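 CHO K1 cells stably expressing human or rat B1R, loaded with Fluo-4 and read in FLIPR (ex 488, em 540 nm, peak fluorescence). Test compound 10 μM preincubated 10-20 min, then EC80 agonist added (Lys-Des-Arg9-bradykinin for human, Des-Arg9-bradykinin for rat); % inhibition relative to maximum achievable inhibition.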

| inhibition at 10 µM [1] | inhibition at 10 µM [2] | B1R antagonism, human [10 μM] % inhibition [1] | B1R antagonism, rat [10 μM] % inhibition ([2]; 10 μM test substance, 10 µM) | SMILES |
| --- | --- | --- | --- | --- |
| 100% | 101% | – | – | COc1cc(C)c(S(=O)(=O)N(C)CCOCC(=O)N2CCC(OCCCN3CCCC3)(c3cccnc3)CC2)c(C)c1 [Example 41, 4-methoxy-N,2,6-trimethyl-N-(2-(2-oxo-2-(4-(pyridin-3-yl)-4-(3-(pyrrolidin-1-yl)propoxy)piperidin-1-yl)ethoxy)ethyl)benzenesulfonamide] |
| 100% | 102% | – | – | COc1cc(C)c(S(=O)(=O)N(CCOCC(=O)N2CCC(OCCN3CCCC3)(c3ccncc3)CC2)c2ccccc2)c(C)c1 [Example 100, 4-methoxy-2,6-dimethyl-N-[2-[2-oxo-2-[4-pyridin-4-yl-4-(2-pyrrolidin-1-yl-ethoxy)-piperidin-1-yl]-ethoxy]-ethyl]-N-phenyl-benzenesulfonic acid amide] |
| 99% | 98% | – | – | COc1cc(C)c(S(=O)(=O)N2c3ccccc3CCC2COCC(=O)N2CCC(OCCN3CCCC3)(c3cccc(F)c3)CC2)c(C)c1 (centres unmarked) [Example 102, 1-[4-(3-fluorophenyl)-4-(2-pyrrolidin-1-yl-ethoxy)-piperidin-1-yl]-2-[[1-[(4-methoxy-2,6-dimethyl-phenyl)sulfonyl]-1,2,3,4-tetrahydro-quinolin-2-yl]-methoxy]-ethanone] |
| 100% | 102% | – | – | COc1cc(C)c(S(=O)(=O)N2c3ccccc3CCC2COCC(=O)N2CCC(OCCN3CCCC3)(c3cccnc3)CC2)c(C)c1 (centres unmarked) [Example 101, 2-[[1-[(4-methoxy-2,6-dimethyl-phenyl)sulfonyl]-1,2,3,4-tetrahydro-quinolin-2-yl]-methoxy]-1-[4-pyridin-3-yl-4-(2-pyrrolidin-1-yl-ethoxy)-piperidin-1-yl]-ethanone] |
| 100% | 103% | – | – | COc1cc(C)c(S(=O)(=O)N(CCOCC(=O)N2CCC(OCCN3CCCC3)(c3cccnc3)CC2)c2ccccc2)c(C)c1 [Example 98, 4-methoxy-2,6-dimethyl-N-[2-[2-oxo-2-[4-pyridin-3-yl-4-(2-pyrrolidin-1-yl-ethoxy)-piperidin-1-yl]-ethoxy]-ethyl]-N-phenyl-benzenesulfonic acid amide] |
| 100% | 99% | – | – | COc1cc(C)c(S(=O)(=O)N2CCCCC2COCC(=O)N2CCC(OCCN3CCCC3)(c3cccc(F)c3)CC2)c(C)c1 (centres unmarked) [Example 83, 1-[4-(3-fluorophenyl)-4-(2-pyrrolidin-1-yl-ethoxy)-piperidin-1-yl]-2-[[1-[(4-methoxy-2,6-dimethyl-phenyl)sulfonyl]-piperidin-2-yl]-methoxy]-ethanone] |
| 102% | 103% | – | – | COc1cc(C)c(S(=O)(=O)N(C)CCOCC(=O)N2CCC(OCCCN3CCCCC3)(c3cccnc3)CC2)c(C)c1 [Example 18, 4-methoxy-N,2,6-trimethyl-N-(2-(2-oxo-2-(4-(3-(piperidin-1-yl)propoxy)-4-(pyridin-3-yl)piperidin-1-yl)ethoxy)ethyl)benzenesulfonamide] |

More lines, now with the values behind:

| SMILES | inhibition at 10 µM [1] | inhibition at 10 µM [2] | B1R antagonism, human [10 μM] % inhibition [1] | B1R antagonism, rat [10 μM] % inhibition ([2]; 10 μM test substance, 10 µM) |
| --- | --- | --- | --- | --- |
| O=C(COC[C@@H]1CCCCN1S(=O)(=O)c1ccccc1C(F)(F)F)N1CCC(OCCN2CCCC2)(c2cccnc2)CC1 [Example 47, (S)-1-(4-(pyridin-3-yl)-4-(2-(pyrrolidin-1-yl)ethoxy)piperidin-1-yl)-2-((1-(2-(trifluoromethyl)phenylsulfonyl)piperidin-2-yl)methoxy)ethanone] | 100% | 101% | – | – |
| COc1cc(C)c(S(=O)(=O)N2CCCC[C@H]2COCC(=O)N2CCCC(OCCN3CCCC3)(c3cccnc3)CC2)c(C)c1 (stereo partly drawn) [Example 55, 2-[[(2S)-1-[(4-methoxy-2,6-dimethyl-phenyl)sulfonyl]-piperidin-2-yl]-methoxy]-1-[4-pyridin-3-yl-4-(2-pyrrolidin-1-yl-ethoxy)-azepan-1-yl]-ethanone] | 100% | 103% | – | – |
| COc1cc(C)c(S(=O)(=O)N2CCCC[C@H]2COCC(=O)N2CCC(OCCN3CCCC3)(c3cccc(C(F)(F)F)c3)CC2)c(C)c1 [Example 54, 2-[[(2S)-1-[(4-methoxy-2,6-dimethyl-phenyl)sulfonyl]-piperidin-2-yl]-methoxy]-1-[4-(2-pyrrolidin-1-yl-ethoxy)-4-[3-(trifluoromethyl)phenyl]-piperidin-1-yl]-ethanone] | 99% | 96% | – | – |
| Cc1cc(S(=O)(=O)N2CCCCC2CCC(=O)N2CCC(OCCCN3CCCCC3)(c3cccnc3)CC2)c(C)cc1Cl (centres unmarked) [Example 12, 3-(1-(4-chloro-2,5-dimethylphenylsulfonyl)piperidin-2-yl)-1-(4-(3-(piperidin-1-yl)propoxy)-4-(pyridin-3-yl)piperidin-1-yl)propan-1-one] | 103% | 46% | – | – |
| COc1cc(C)c(S(=O)(=O)N2CCCCC2COCCC(=O)N2CCC(OCCN3CCCC3)(c3cccc(F)c3)CC2)c(C)c1 (centres unmarked) [Example 122, 1-[4-(3-fluorophenyl)-4-(2-pyrrolidin-1-yl-ethoxy)-piperidin-1-yl]-3-[[1-[(4-methoxy-2,6-dimethyl-phenyl)sulfonyl]-piperidin-2-yl]-methoxy]-propan-1-one] | – | – | 100% | 100% |
| Cc1cccc(Cl)c1S(=O)(=O)N1CCCCC1CCCC(=O)N1CCC(OCCN2CCCC2)(c2cccnc2)CC1 (centres unmarked) [Example 9, 4-(1-(2-chloro-6-methylphenylsulfonyl)piperidin-2-yl)-1-(4-(pyridin-3-yl)-4-(2-(pyrrolidin-1-yl)ethoxy)piperidin-1-yl)butan-1-one] | 100% | 102% | – | – |
